This is an account of results in patent US8106055B2, “Substituted amide compounds” (Gruenenthal GmbH, priority 2007, dated 2012).

Assay [1] addresses T1, bradykinin 1 receptor (B1R) of the rat (Rattus norvegicus, UniProt P97583).
T1 construct: expressed in transfected cells; host or cells: CHO K1 cells
T1 sequence (P97583 1-337): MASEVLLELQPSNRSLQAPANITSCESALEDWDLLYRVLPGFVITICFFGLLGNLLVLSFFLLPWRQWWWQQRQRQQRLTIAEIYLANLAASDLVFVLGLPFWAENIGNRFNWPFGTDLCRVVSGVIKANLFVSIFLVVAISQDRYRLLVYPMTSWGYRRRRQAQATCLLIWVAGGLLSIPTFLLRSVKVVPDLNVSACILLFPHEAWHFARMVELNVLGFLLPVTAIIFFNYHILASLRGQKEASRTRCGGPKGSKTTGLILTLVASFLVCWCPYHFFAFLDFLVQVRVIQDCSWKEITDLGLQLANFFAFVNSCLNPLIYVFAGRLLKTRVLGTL
Put plainly: Functional investigation on the rat bradykinin 1 receptor (B1R), Ca2+ FLIPR assay in CHO K1 rB1R cells. The assay is classed as cell-based. The conditions noted are these: test substance 10 μM, Ca2+ FLIPR, CHO K1 rB1R cells; for B1R Ant. r [10 μM] % Inhibition: B1R antagonism rat; for inhibition at 10 µM: CHO-K1, B1R antagonism rat, read-out: B1R Ant. r [10 μM] % Inhibition. In short, it runs like this: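 Stably transfected CHO K1 cells loaded with Fluo-4; FLIPR Ca2+ fluorescence peak (ex 488/em 540 nm). Compound added first (agonism vs Lys-Des-Arg9-bradykinin ≥50 nM human, Des-Arg9-bradykinin 10 μM rat), then after 10-20 min agonist at EC80; antagonism as % inhibition, IC50 from concentration series, n=2-3, N≥2.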

For a further assay, the target named is T2, human μ opiate receptor (Homo sapiens, UniProt P35372).
T2 construct: purchased PerkinElmer Life Sciences, Zaventem, Belgium RB-HOM; host or cells: CHO-K1 cells (membrane preparation)
The experiment in a line: Affinity for the human μ opiate receptor ([3H]-naloxone displacement, CHO-K1 receptor membrane preparation, SPA). The class given is binding. The conditions noted are these: test concentration of 1 μM; for inhibition at 1 µM: read-out: μ (binding on the μ opioid receptor, % inhibition). In short, it runs like this: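 CHO-K1 membranes expressing human μ receptor incubated 90 min at room temperature with 1 nmol/l [3H]-naloxone and WGA-SPA beads in 50 mmol/l Tris-HCl, 0.06% BSA; 100 μmol/l naloxone defines non-specific binding. Values are % inhibition of specific binding at 1 μM; IC50 converted to Ki by Cheng-Prusoff.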

Structures are written as SMILES.

T2 sequence (P35372 whole entry): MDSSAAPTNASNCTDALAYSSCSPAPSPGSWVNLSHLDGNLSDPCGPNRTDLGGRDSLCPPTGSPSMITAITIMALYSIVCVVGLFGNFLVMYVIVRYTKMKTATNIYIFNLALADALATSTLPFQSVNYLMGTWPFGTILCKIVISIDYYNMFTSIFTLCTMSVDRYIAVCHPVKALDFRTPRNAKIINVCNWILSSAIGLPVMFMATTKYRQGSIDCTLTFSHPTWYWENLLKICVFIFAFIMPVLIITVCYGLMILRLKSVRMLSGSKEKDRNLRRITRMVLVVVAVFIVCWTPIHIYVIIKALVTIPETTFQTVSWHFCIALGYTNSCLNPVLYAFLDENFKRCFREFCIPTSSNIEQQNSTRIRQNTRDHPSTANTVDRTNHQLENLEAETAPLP

On to `COc1ccc(S(=O)(=O)N2CCCCC2COCC(=O)NCC2CCC(C(c3ccc(F)cc3)N(C)C)CC2)cc1OC` (single isomer, unassigned) [Example 534], for which the “B1R Ant. r [10 μM] % Inhibition” value in assay [1] was −4%. Further, the “μ (binding on the μ opioid receptor, % inhibition)” value on human μ opiate receptor (1 µM) was determined as 24%.

Turning to `COc1ccc(S(=O)(=O)N2CCCCC2COCC(=O)NCC2CCC(C(c3ccc(F)cc3)N(C)C)CC2)cc1OC` (single isomer, unassigned) [Example 537], the “B1R Ant. r [10 μM] % Inhibition” value in assay [1] came out at 8%. The “μ (binding on the μ opioid receptor, % inhibition)” value on human μ opiate receptor (1 µM) is given as 35%.

Take `COc1ccc(S(=O)(=O)N2CCCCC2CCOCC(=O)NC2CCC(C(c3cccs3)N(C)C)CC2)cc1` (centres unmarked) [Example 6, N-(4-((dimethylamino)(thiophen-2-yl)methyl)cyclohexyl)-2-(2-(1-(4-methoxyphenylsulfonyl)piperidin-2-yl)ethoxy)acetamide]: in assay [1], the inhibition at 10 µM came to 34%. For the same compound, the inhibition at 1 µM on human μ opiate receptor came out at 99%.

As for `COc1ccc(S(=O)(=O)N2Cc3ccccc3CC2COCC(=O)NCC2CCC(C(c3cccs3)N(C)C)CC2)cc1` (centres unmarked) [Example 7, N-((4-((dimethylamino)(thiophen-2-yl)methyl)cyclohexyl)methyl)-2-((2-(4-methoxyphenylsulfonyl)-1,2,3,4-tetrahydroisoquinolin-3-yl)methoxy)acetamide], the inhibition at 10 µM in assay [1] is 27%. Besides, the inhibition at 1 µM at human μ opiate receptor was 99%.

As for `CN(C)C(c1cccs1)C1CCC(CNC(=O)COCCN(C)S(=O)(=O)c2ccc(Cl)cc2Cl)CC1` (centres unmarked) [Example 8, 2-(2-(2,4-dichloro-N-methylphenylsulfonamido)ethoxy)-N-((4-((dimethylamino)(thiophen-2-yl)methyl)cyclohexyl)methyl)acetamide], the inhibition at 10 µM in assay [1] was found to be 62%. Moreover, the inhibition at 1 µM at human μ opiate receptor was determined as 98%.

As to `Cc1cc(C)c(S(=O)(=O)N(C)CCOCC(=O)NC2CCC(C(c3ccccc3)N(C)C)CC2)c(C)c1` (centres unmarked) [Example 63, N-(4-((dimethylamino)(phenyl)methyl)cyclohexyl)-2-(2-(N,2,4,6-tetramethylphenylsulfamido)ethoxy)acetamide], in assay [1], the “B1R Ant. r [10 μM] % Inhibition” value stood at 8%. Also, on human μ opiate receptor, the “μ (binding on the μ opioid receptor, % inhibition)” value is recorded as 94%.

With `CN(C)C(c1cccs1)C1CCC(CCNC(=O)COC2CCN(S(=O)(=O)c3cccc(C(F)(F)F)c3)C2)CC1` (centres unmarked) [Example 96, N-(2-(4-((dimethylamino)(thiophen-2-yl)methyl)cyclohexyl)ethyl)-2-(1-(3-(trifluoromethyl)phenylsulfonyl)pyrrolidin-3-yloxy)acetamide], the inhibition at 10 µM in assay [1] is 26%. Also, the inhibition at 1 µM at human μ opiate receptor is 92%.

For `CN(C)C(c1cccs1)C1CCC(CNC(=O)COC2CCN(S(=O)(=O)c3ccc(F)cc3)C2)CC1` (centres unmarked) [Example 97, N-((4-((dimethylamino)(thiophen-2-yl)methyl)cyclohexyl)methyl)-2-(1-(4-fluorophenylsulfonyl)pyrrolidin-3-yloxy)acetamide], the inhibition at 10 µM in assay [1] stood at 28%. Moreover, the inhibition at 1 µM on human μ opiate receptor is 92%.

With `COc1cc(C)c(S(=O)(=O)N2CCC(OCC(=O)NC3CCC(C(c4cccs4)N(C)C)CC3)C2)c(C)c1` (centres unmarked) [Example 98, N-(4-((dimethylamino)(thiophen-2-yl)methyl)cyclohexyl)-2-(1-(4-methoxy-2,6-dimethylphenylsulfonyl)pyrrolidin-3-yloxy)acetamide], the inhibition at 10 µM in assay [1] was found to be 69%. In addition, the inhibition at 1 µM at human μ opiate receptor was found to be 91%.

Turning to `CN(C)C(c1cccs1)C1CCC(CCNC(=O)COCCN2CCN(S(=O)(=O)c3ccccc3)CC2)CC1` (centres unmarked) [Example 99, N-(2-(4-((dimethylamino)(thiophen-2-yl)methyl)cyclohexyl)ethyl)-2-(2-(4-(phenylsulfonyl)piperazin-1-yl)ethoxy)acetamide], the inhibition at 10 µM in assay [1] was -8%. Also, at human μ opiate receptor, the inhibition at 1 µM was 92%.

For the compound `CN(C)C(c1cccs1)C1CCC(CCNC(=O)COC2CCCN(S(=O)(=O)c3ccccc3)C2)CC1` (centres unmarked) [Example 100, N-(2-(4-((dimethylamino)(thiophen-2-yl)methyl)cyclohexyl)ethyl)-2-(1-(phenylsulfonyl)piperidin-3-yloxy)acetamide], the inhibition at 10 µM in assay [1] came to 27%. Also, the inhibition at 1 µM on human μ opiate receptor was found to be 94%.

With `CN(C)C(c1cccs1)C1CCC(CNC(=O)COCC2CCCN(S(=O)(=O)c3ccccc3)C2)CC1` (centres unmarked) [Example 101, N-((4-((dimethylamino)(thiophen-2-yl)methyl)cyclohexyl)methyl)-2-((1-(phenylsulfonyl)piperidin-3-yl)methoxy)acetamide], in assay [1], the inhibition at 10 µM stood at 27%. Moreover, on human μ opiate receptor, the inhibition at 1 µM stood at 92%.

In the case of `CN(C)C(c1cccs1)C1CCC(CNC(=O)COCCN(Cc2ccccc2)S(=O)(=O)c2ccccc2)CC1` (centres unmarked) [Example 102, 2-(2-(N-benzylphenylsulfonamido)ethoxy)-N-((4-((dimethylamino)(thiophen-2-yl)methyl)cyclohexyl)methyl)acetamide], the inhibition at 10 µM in assay [1] is -12%. At human μ opiate receptor, the inhibition at 1 µM was 94%.

In the case of `CCN(CCOCC(=O)NCCC1CCC(C(c2cccs2)N(C)C)CC1)S(=O)(=O)c1c(C)cc(OC)c(C)c1C` (centres unmarked) [Example 103, N-(2-(4-((dimethylamino)(thiophen-2-yl)methyl)cyclohexyl)ethyl)-2-(2-(N-ethyl-4-methoxy-2,3,6-trimethylphenylsulfonamido)ethoxy)acetamide], the inhibition at 10 µM in assay [1] came out at 84%. The inhibition at 1 µM at human μ opiate receptor amounted to 94%.

With `COc1cc(C)c(S(=O)(=O)N2CCC(OCC(=O)NCC3CCC(C(c4cccs4)N(C)C)CC3)CC2)c(C)c1C` (centres unmarked) [Example 104, N-((4-((dimethylamino)(thiophen-2-yl)methyl)cyclohexyl)methyl)-2-(1-(4-methoxy-2,3,6-trimethylphenylsulfonyl)piperidin-4-yloxy)acetamide], the inhibition at 10 µM in assay [1] is -10%. Further, the inhibition at 1 µM on human μ opiate receptor worked out at 90%.

Regarding `COc1ccc(S(=O)(=O)N2CCCC2COCC(=O)NCC2CCC(C(c3cccs3)N(C)C)CC2)cc1` (centres unmarked) [Example 105, N-((4-((dimethylamino)(thiophen-2-yl)methyl)cyclohexyl)methyl)-2-((1-(4-methoxyphenylsulfonyl)pyrrolidin-2-yl)methoxy)acetamide], the inhibition at 10 µM in assay [1] is 24%. Moreover, the inhibition at 1 µM at human μ opiate receptor was 93%.

On to `COc1ccc(S(=O)(=O)N2CCCCC2COCC(=O)NCC2CCC(C(c3ccccc3)N(C)C)CC2)c(OC)c1` (centres unmarked) [Example 106, 2-((1-(2,4-dimethoxyphenylsulfonyl)piperidin-2-yl)methoxy)-N-((4-((dimethylamino)(phenyl)methyl)cyclohexyl)methyl)acetamide], for which, in assay [1], the inhibition at 10 µM came to 13%. The inhibition at 1 µM at human μ opiate receptor turned out to be 92%.

Turning to `COc1ccc(S(=O)(=O)N2CCCCC2COCC(=O)NCCC2CCC(C(c3cccs3)N(C)C)CC2)c(OC)c1` (centres unmarked) [Example 107, 2-((1-(2,4-dimethoxyphenylsulfonyl)piperidin-2-yl)methoxy)-N-(2-(4-((dimethylamino)(thiophen-2-yl)methyl)cyclohexyl)ethyl)acetamide], the inhibition at 10 µM in assay [1] was 49%. In addition, the inhibition at 1 µM at human μ opiate receptor stood at 92%.

With `CN(C)C(c1ccccc1)C1CCC(CNC(=O)COCCN(C)S(=O)(=O)c2ccc(Cl)cc2)CC1` (centres unmarked) [Example 110, 2-(2-(4-chloro-N-methylphenylsulfonamido)ethoxy)-N-((4-((dimethylamino) (phenyl)methyl)cyclohexyl)methyl)acetamide], the inhibition at 10 µM in assay [1] worked out at 10%. For the same compound, the inhibition at 1 µM on human μ opiate receptor came to 87%.

Turning to `COc1cc(C)c(S(=O)(=O)N(C)CCOCC(=O)NC2CCC(C(c3cccs3)N(C)C)CC2)c(C)c1` (centres unmarked) [Example 111, N-(4-((dimethylamino)(thiophen-2-yl)methyl)cyclohexyl)-2-(2-(4-methoxy-N,2,6-trimethylphenylsulfonamido)ethoxy)acetamide], in assay [1], the inhibition at 10 µM was determined as 104%. The inhibition at 1 µM at human μ opiate receptor came out at 92%.

In the case of `CN(C)C(c1ccccc1)C1CCC(CNC(=O)COCCN(C)S(=O)(=O)c2ccc(F)cc2)CC1` (centres unmarked) [Example 112, N-((4-((dimethylamino)(phenyl)methyl)cyclohexyl)methyl)-2-(2-(4-fluoro-N-methylphenylsulfonamido)ethoxy)acetamide], the inhibition at 10 µM in assay [1] came to 5%. Further, at human μ opiate receptor, the inhibition at 1 µM is 82%.

As to `CN(C)C(c1ccccc1)C1CCC(CNC(=O)COC2CCN(S(=O)(=O)c3cccc(C(F)(F)F)c3)C2)CC1` (centres unmarked) [Example 113, N-((4-((dimethylamino)(phenyl)methyl)cyclohexyl)methyl)-2-(1-(3-(trifluoromethyl)phenylsulfonyl)pyrrolidin-3-yloxy)acetamide], the inhibition at 10 µM in assay [1] was found to be 28%. Besides, the inhibition at 1 µM at human μ opiate receptor was determined as 90%.
